Legend:
PC3 cells = assay: MTT cell viability assay; assay type: cell-based; conditions: drug concentration 5 μM, Dox to RNA 1:1, treated approximately one hour, total of 72 hours
Experimental: (§1) Doxorubicin (Dox), a cytotoxic drug commonly used in chemotherapy that can dock into double-stranded portions of nucleic acids because of the stacking capacity of its many-ringed structure, was “loaded” onto oligonucleotides at a molar ratio of 1:1, Dox to RNA, e.g., as described in Bagalkot, V. et al., Angewandte Chemie (International ed 45, 8149-8152 (2006) (the drug concentration was 5 μM). MTT assays were performed essentially as previously described, e.g., in Akaishi, S. et al., The Tohoku Journal of Experimental Medicine 175, 29-42 (1995). Briefly, 100 μl aliquots of LNCaP or PC3 cells (5×10^3 cells/mL) were seeded in 24-well plates (n=5), allowed to grow overnight and treated, for approximately one hour, with 100 μL of either a) nothing; b) Dox alone; c) Dox conjugated with the initial library; d) Dox conjugated to the Rd-12 population of the LNCaP selection; or e) Dox conjugated to the Rd-12 population of the PC3 selection; then washed and further incubated, in fresh media, for a total of 72 hours. The cells were then washed twice with EBSS, treated with 50 μL MTT solution for 4 hours, and lysed with MTT-detergent overnight. The absorbance was measured the following day using micro-plate reader at 570 nm.

LNCaP cells = assay: MTT cell viability assay; assay type: cell-based; conditions: drug concentration 5 μM, Dox to RNA 1:1, treated approximately one hour, total of 72 hours
Experimental: as §1

**Q.** For `COc1cccc2c1C(=O)c1c(O)c3c(c(O)c1C2=O)C[C@@](O)(C(=O)CO)C[C@@H]3O[C@H]1C[C@H](N)[C@H](O)[C@H](C)O1` [Dox, Doxorubicin], which “effectiveness (cytotoxicity) in MTT assay” value (PC3 cells) is on record?
**A.** equipotent against PC3 and LNCaP cells

**Q.** And the “effectiveness (cytotoxicity) in MTT assay” value (LNCaP cells)?
**A.** equipotent against PC3 and LNCaP cells

Reference: US20100144845A1, “OLIGONUCLEOTIDE SYSTEMS FOR TARGETED INTRACELLULAR DELIVERY” (Massachusetts Institute of Technology, priority 2006, published 2010)
